Patent US7655654B2, “Farnesyl transferase inhibiting tricyclic quinazoline derivatives substituted with carbon-linked imidazoles or triazoles” (Janssen Pharmaceutica NV, priority 2002, dated 2010)

Key:
[1] = molecular target: farnesyl protein transferase (Homo sapiens, UniProt P49354+P49356); assay: In vitro assay for inhibition of farnesyl protein transferase; format: biochemical; conditions: for IC50 / Enzyme activity pIC50: negative log value of the IC50-value; for IC50: read-out: Enzyme activity pIC50 (converted); for % of inhibition at 10^−7 M / inhibition at 0.1 µM: at 10^−7 M
Procedure: Example C.1: “In Vitro Assay for Inhibition of Farnesyl Protein Transferase”:
An in vitro assay for inhibition of farnesyl transferase was performed essentially as described in WO 98/40383, pages 33-34. Herein the effects of test compounds are expressed as pIC50 (the negative log value of the IC50-value) and as % of inhibition at 10^−7 M (see Table F-2)

Compound	% of inhibition at 10^−7 M [1] [%]	IC50 [1] [nM]	melting point [°C]	inhibition at 0.1 µM [1] [%]	Enzyme activity pIC50 [1]
COc1ccc(C(O)(c2ccc3c(c2)C(c2cccc(Cl)c2)n2nnnc2N3C)c2cncn2C)cc1 (mixture of isomers) [Compound 6]	90	14.1			
CCOC(=O)CN1c2ccc(C(O)(c3ccc(OC)cc3)c3cncn3C)cc2C(c2cccc(Cl)c2)n2nnnc21 (mixture of isomers) [Compound 13]		25.4	126	80	
COc1ccc(C(O)(c2ccc3c(c2)C(c2cccc(Cl)c2)n2nnnc2N3Cc2ccc(C#N)cc2)c2cncn2C)cc1 (mixture of isomers) [Compound 14]		18.6	164	74	
COc1ccc(C(O)(c2ccc3c(c2)C(c2cccc(Cl)c2)n2nnnc2N3C)c2cncn2C)cc1 (mixture of isomers) [Compound 15]		16.6	144	88	
Cn1cnnc1C(O)(c1ccc(I)cc1)c1ccc2c(c1)C(c1cccc(Cl)c1)n1nnnc1N2 (mixture of isomers) [Compound 16]		> 100	226	45	
Cn1cncc1C(O)(c1ccc(I)cc1)c1ccc2c(c1)C(c1cccc(Cl)c1)n1nnnc1N2 (mixture of isomers) [Compound 18]		29.9	225	76	
CN1c2ccc(C(O)(c3ccc(Cl)cc3)c3cncn3C)cc2C(c2cccc(Cl)c2)n2nnnc21 (mixture of isomers) [Compound 19]		9.71		92	
COc1ccc(C(c2ccc3c(c2)C(c2cccc(Cl)c2)n2nnnc2N3C)c2cncn2C)cc1 (mixture of isomers) [Compound 20]		9.2	108	91	
CN1c2ccc(C(O)(c3ccc(I)cc3)c3cncn3C)cc2C(c2cccc(Cl)c2)n2nnnc21 (mixture of isomers) [Compound 21]		19.1	228	78	
CN1c2ccc(C(O)(c3ccc(I)cc3)c3nncn3C)cc2C(c2cccc(Cl)c2)n2nnnc21 (mixture of isomers) [Compound 22]		< 100	181	57	
CC(C)OC(=O)c1ccc(C(O)(c2ccc3c(c2)C(c2cccc(Cl)c2)n2nnnc2N3C)c2cncn2C)cc1 (mixture of isomers) [Compound 25]		< 100	165	66	
Cc1ccc(C(N)(c2ccc3c(c2)C(c2cccc(Cl)c2)n2nnnc2N3)c2cncn2C)cc1 (single isomer, unassigned) [Compound 4, 9-(3-chlorophenyl)-4,9-dihydro-α-(1-methyl-1H-imidazol-5-yl)-α-(4-methylphenyl)-tetrazolo[5,1-b]quinazoline-7-methanamine]	74	34.6			
Cc1ccc(C(N)(c2ccc3c(c2)C(c2cccc(Cl)c2)n2nnnc2N3)c2cncn2C)cc1 (single isomer, unassigned) [Compound 5, 9-(3-chlorophenyl)-4,9-dihydro-α-(1-methyl-1H-imidazol-5-yl)-α-(4-methylphenyl)-tetrazolo[5,1-b]quinazoline-7-methanamine]	99	< 1			
COc1ccc(C(O)(c2ccc3c(c2)C(c2cccc(Cl)c2)n2nnnc2N3)c2cncn2C)cc1 (single isomer, unassigned) [Compound 7]	64	< 100	> 260		
COc1ccc(C(O)(c2ccc3c(c2)C(c2cccc(Cl)c2)n2nnnc2N3)c2cncn2C)cc1 (single isomer, unassigned) [Compound 8]	88	12.4	176		
Cn1cncc1[C@@](N)(c1ccc(Cl)cc1)c1ccc2c(c1)C(c1cccc(Cl)c1)n1nnnc1N2 (single isomer, unassigned) [Compound 11]		> 100	242	46	
Cn1cncc1[C@@](N)(c1ccc(Cl)cc1)c1ccc2c(c1)C(c1cccc(Cl)c1)n1nnnc1N2 (single isomer, unassigned) [Compound 12]	42		162		<7
Cn1cncc1C(O)(c1ccc(Cl)cc1)c1ccc2c(c1)C(c1cccc(Cl)c1)n1nnnc1N2 (stereo not drawn) [Compound 1, 9-(3-chlorophenyl)-α-(4-chlorophenyl)4,9-dihydro-α-(1-methyl-1H-imidazol-5-yl)-tetrazolo[5,1-b]quinazoline-7-methanol]		25.4	> 260	81	
Cn1cncc1C(O)(c1ccc(F)cc1)c1ccc2c(c1)C(c1cccc(Cl)c1)n1nnnc1N2 (stereo not drawn) [Compound 2, 9-(3-chlorophenyl)-α-(4-fluorophenyl)4,9-dihydro-α-(1-methyl-1H-imidazol-5-yl)-tetrazolo[5,1-b]quinazoline-7-methanol]		1.77	180	96	
COc1ccc(C(O)(c2ccc3c(c2)C(c2cccc(Cl)c2)n2nnnc2N3)c2cncn2C)cc1 (stereo not drawn) [Compound 3, 9-(3-chlorophenyl)-4,9-dihydro-α-(4-methoxyphenyl)-α-(1-methyl-1H-imidazol-5-yl)-tetrazolo[5,1-]quinazoline-7-methanol]		23.3		80	
COc1ccc(C(O)(c2ccc3c(c2)C(c2cccc(Cl)c2)n2nnnc2N3CC2CC2)c2cncn2C)cc1 (stereo not drawn) [Compound 9]		20.6	121	82	
CCOC(c1ccc(Cl)cc1)(c1ccc2c(c1)C(c1cccc(Cl)c1)n1nnnc1N2)c1cncn1C (stereo not drawn) [Compound 10]		> 100		43	
Cn1cnnc1C(O)(c1ccc(I)cc1)c1ccc2c(c1)C(c1cccc(Cl)c1)n1nnnc1N2 (stereo not drawn) [Compound 17]	42		195		<7
Cn1cncc1[C@](N)(c1ccc(Cl)cc1)c1ccc2c(c1)C(c1cccc(Cl)c1)n1nnnc1N2 (stereo partly drawn) [Compound 23]		2.54	> 250	98	
Cn1cncc1[C@](N)(c1ccc(Cl)cc1)c1ccc2c(c1)C(c1cccc(Cl)c1)n1nnnc1N2 (stereo partly drawn) [Compound 24]	88	11.7	183		
